Tested on: peripheral blood mononuclear cells (PBMC)
Assay: qPCR (TaqMan) measurement of mRNA expression in PBMC treated with compound A
Type: cell-based, human
Conditions: untreated cells = 1, corrected by 18S rRNA
Excerpt: Since it is not easy to obtain a cancer tissue clinically, the measurement of the marker in hemocytes readily obtainable in peripheral blood would be more useful. Specifically peripheral blood was taken from three normal individuals (volunteers) and peripheral blood mononuclear cells were purified and treated with compound A, followed by measurement of change in expression of the gene (mRNA) by qPCR.
RNA samples were first prepared in accordance with the steps described in Example 2 (1) and (2).
Subsequently RNA was prepared to 30 ng/μl and cDNA was synthesized by using TaqMan Reverse Transcription Reagents (Applied Biosystems). The expression level of SLC25A19, TRAPPC4, GTF2H1, Id1, EDN1, ZCCHC6, HNRPA2B1, and HSPA9B was amplified with TaqMan Gene Expression Assays (catalog numbers below) (Applied Biosystems) as a probe by using TaqMan Universal PCR Master Mix (Applied Biosystems).
Reagents were prepared in accordance with the protocol, and measurement was carried out with ABI7900 (Applied Biosystems). Measured values were corrected by using the expression level of 18S rRNA (Hs99999901_s1, Applied Biosystems) as an internal control. The expression level of each gene was calculated with the expression level in the cells untreated with compound A as 1. […] In Table 3, for each gene evaluated, abbreviated name (Gene Symbol), accession number (Accession), alias name (Synonym), gene name (Gene Name), and the expression level upon treatment with varied concentration of E7107 (E7107 (nM)) were respectively shown.

## CCC(O)C(C)C1OC1CC(C)(O)/C=C/C=C(\C)C1OC(=O)CC(O)CCC(C)(O)C(OC(=O)N2CCN(C3CCCCCC3)CC2)/C=C/C1C (centres unmarked) [E7107, (8E,12E,14E)-7-((4-Cycloheptylpiperazin-1-yl)carbonyl)oxy-3,6,16,21-tetrahydroxy-6,10,12,16,20-pentamethyl-18,19-epoxytricosa-8,12,14-trien-11-olide]
3 nM
  EDN1 mRNA expression level (qPCR): 0.45
  GTF2H1 mRNA expression level (qPCR): 0.22
  HNRPA2B1 mRNA expression level (qPCR): 0.48
  HSPA9 mRNA expression level (qPCR): 0.39
  ID1 mRNA expression level (qPCR): 0.5
  SLC25A19 mRNA expression level (qPCR): 0.11
  TRAPPC4 mRNA expression level (qPCR): 0.12
  ZCCHC8 mRNA expression level (qPCR): 0.49
10 nM
  EDN1 mRNA expression level (qPCR): 0.2
  GTF2H1 mRNA expression level (qPCR): 0.07
  HNRPA2B1 mRNA expression level (qPCR): 0.29
  HSPA9 mRNA expression level (qPCR): 0.26
  ID1 mRNA expression level (qPCR): 0.15
  SLC25A19 mRNA expression level (qPCR): 0.02
  TRAPPC4 mRNA expression level (qPCR): 0.02
  ZCCHC8 mRNA expression level (qPCR): 0.19
30 nM
  EDN1 mRNA expression level (qPCR): 0.11
  GTF2H1 mRNA expression level (qPCR): 0.05
  HNRPA2B1 mRNA expression level (qPCR): 0.24
  HSPA9 mRNA expression level (qPCR): 0.17
  ID1 mRNA expression level (qPCR): 0.09
  SLC25A19 mRNA expression level (qPCR): 0.01
  TRAPPC4 mRNA expression level (qPCR): 0.01
